The source of these data is US20240059703A1 (AMGEN INC., priority 2021, published 2024).

Structures are written as SMILES.

One assay concerns the target KRAS G12C (Homo sapiens (Human), UniProt P01116, C118A/G12C). The experiment in a line: 2 h coupled exchange assay. The assay is classed as biochemical. The conditions noted are these: Avg 2 h Coupled exchange IC50, 2 h compound pre-incubation. On the procedure: The term “2 h coupled exchange assay” or “20 h coupled exchange assay” as used herein refers to the assay described in the Section entitled “BIOLOGICAL EVALUATION.”

Assay [1] has as its system MIA PaCa-2 (human pancreatic carcinoma) cells. Nature of the assay: Cell Viability Assay (CellTiter-Glo), MIA PaCa-2. Type of assay: cell-based. Here is the method: Serially-diluted compound or DMSO was added to the cells, and plates were incubated at 37° C., 5% CO2 for 72 h. Cell viability was measured using a CellTiter-Glo® Luminescent Cell Viability Assay kit (Promega) according to the manufacturer's protocol. The luminescence signal of treated samples was normalized to DMSO control, and data were analyzed using a 4-parameter logistic model to calculate IC50 values.

The subject of assay [2] is A549 (human lung carcinoma) cells. Nature of the assay: Cell Viability Assay (CellTiter-Glo), A549. Type of assay: cell-based. The gist of the method: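 RPMI 1640/10% FBS; seed 1.67E+04 cells/mL, o/n 37° C., 5% CO2; serial-dilution cmpd 72 h; CellTiter-Glo luminescence vs DMSO; 4-parameter logistic fit → IC50.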
In general terms: In ATP-based viability assays light output follows the ATP content of the culture.

KRAS G12C, sequence (P01116 other isoform, or with tags, fused parts or gaps G12C/C118A): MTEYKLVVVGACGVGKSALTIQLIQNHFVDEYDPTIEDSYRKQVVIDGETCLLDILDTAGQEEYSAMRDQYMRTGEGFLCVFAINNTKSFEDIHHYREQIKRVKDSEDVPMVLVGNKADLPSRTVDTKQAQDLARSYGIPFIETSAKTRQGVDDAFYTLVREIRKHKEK

For orientation: IC50 means the concentration that gives 50% inhibition. Consider `C=CC(=O)N1CC2(CCN(c3nc4cc(-c5scnc5C)cnc4c(-c4ccccc4Cl)c3C#N)C2)C1` (single isomer, unassigned) [Example 20-9, (P)-4-(2-chlorophenyl)-7-(4-methyl-1,3-thiazol-5-yl)-2-(2-(2-propenoyl)-2,6-diazaspiro[3.4]octan-6-yl)-1,5-naphthyridine-3-carbonitrile], for which the results for the IC50 (on KRAS G12C; in assay [1] (72 h); in assay [2] (72 h)) were 42 nM, 200 nM and 3190 nM, respectively.

`C=CC(=O)N1CC2(CCN(c3nc4c(c(-c5ccccc5Cl)c3C#N)CCN(c3scnc3C)C4)C2)C1` (single isomer, unassigned) [Example 21-22, (P)-4-(2-chlorophenyl)-7-(4-methyl-1,3-thiazol-5-yl)-2-(2-(2-propenoyl)-2,6-diazaspiro[3.4]octan-6-yl)-5,6,7,8-tetrahydro-1,7-naphthyridine-3-carbonitrile]: the IC50 was 34 nM on KRAS G12C; 170 nM in assay [1] (72 h); greater than 5000 nM in assay [2] (Homo sapiens, A549, 72 h).

Take `C=CC(=O)N1CC2(CCN(c3nc4c(c(-c5ccccc5Cl)c3C#N)CCN(c3scnc3C)C4)C2)C1` (single isomer, unassigned) [Example 21-23, (M)-4-(2-chlorophenyl)-7-(4-methyl-1,3-thiazol-5-yl)-2-(2-(2-propenoyl)-2,6-diazaspiro[3.4]octan-6-yl)-5,6,7,8-tetrahydro-1,7-naphthyridine-3-carbonitrile]: the values for the IC50 (against KRAS G12C; in assay [1] (72 h); in assay [2] (72 h)) were 114 nM, 619 nM and greater than 5000 nM, respectively.

Regarding `C=CC(=O)N1CC2(CCN(c3nc4c(c(-c5cc(O)ccc5Cl)c3C#N)CCN(c3scnc3C)C4)C2)C1` (single isomer, unassigned) [Example 21-24, (P)-4-(2-chloro-5-hydroxyphenyl)-7-(4-methyl-1,3-thiazol-5-yl)-2-(2-(2-propenoyl)-2,6-diazaspiro[3.4]octan-6-yl)-5,6,7,8-tetrahydro-1,7-naphthyridine-3-carbonitrile], the IC50 is 18 nM against KRAS G12C, 297 nM in assay [1] (72 h) and greater than 5000 nM in assay [2] (72 h).

With `C=CC(=O)N1CC2(CCN(c3nc4c(c(-c5cc(O)ccc5Cl)c3C#N)CCN(c3scnc3C)C4)C2)C1` (single isomer, unassigned) [Example 21-25, (M)-4-(2-chloro-5-hydroxyphenyl)-7-(4-methyl-1,3-thiazol-5-yl)-2-(2-(2-propenoyl)-2,6-diazaspiro[3.4]octan-6-yl)-5,6,7,8-tetrahydro-1,7-naphthyridine-3-carbonitrile], the figures for the IC50 (against KRAS G12C; in assay [1] (72 h); in assay [2] (72 h)) were 3260 nM, 7400 nM and 13400 nM, respectively.

As for `C=CC(=O)N1CC2(CCN(c3nc4c(c(-c5cccc(C)c5C)n3)CC[C@@H](c3scnc3C)C4)C2)C1` (single isomer, unassigned) [Example 22-1], the IC50 was 38 nM at KRAS G12C; 585 nM in assay [1] (Homo sapiens, MIA PaCa-2, 72 h); greater than 5000 nM in assay [2] (Homo sapiens, A549, 72 h).

With `C=CC(=O)N1CC2(CCN(c3nc4c(c(-c5cccc(C)c5C)n3)CC[C@H](c3scnc3C)C4)C2)C1` (single isomer, unassigned) [Example 22-2], the IC50 is 701 nM against KRAS G12C; 5270 nM in assay [1] (Homo sapiens, MIA PaCa-2, 72 h); greater than 25000 nM in assay [2] (Homo sapiens, A549, 72 h).

`C=CC(=O)N1CC2(CCN(c3nc4c(c(-c5ccccc5C)c3C#N)CC[C@@H](c3scnc3C)C4)C2)C1` (single isomer, unassigned) [Example 23-3]: the IC50 against KRAS G12C was 107 nM; in assay [1] (72 h) it was 2520 nM; in assay [2] (Homo sapiens, A549, 72 h), greater than 5000 nM.

For `C=CC(=O)N1CC2(CCN(c3nc4c(c(-c5ccccc5C)c3C#N)CC[C@H](c3scnc3C)C4)C2)C1` (single isomer, unassigned) [Example 23-4], the IC50 against KRAS G12C is 19 nM; in assay [1] (72 h) it was 184 nM; in assay [2] (Homo sapiens, A549, 72 h) it was 11000 nM.

In the case of `C=CC(=O)N1CC2(CCN(c3nc4c(c(-c5ccccc5C)c3C#N)CC[C@@H](c3scnc3C)C4)C2)C1` (single isomer, unassigned) [Example 23-5], the results for the IC50 (at KRAS G12C; in assay [1] (72 h); in assay [2] (72 h)) were 8 nM, 107 nM and 3800 nM, respectively.

For the compound `C=CC(=O)N1CC2(CCN(c3nc4c(c(-c5ccccc5C)c3C#N)CC[C@H](c3scnc3C)C4)C2)C1` (single isomer, unassigned) [Example 23-6], the IC50 on KRAS G12C came out at 128 nM; in assay [1] (72 h) it was 3420 nM; in assay [2] (72 h), 13000 nM.

In the case of `C=CC(=O)N1CC2(CCN(c3nc4c(c(-c5ccccc5C)c3C#N)CCC(c3scnc3C)=C4)C2)C1` (single isomer, unassigned) [Example 23-23, (M)-4-(2-methylphenyl)-7-(4-methyl-1,3-thiazol-5-yl)-2-(2-(2-propenoyl)-2,6-diazaspiro[3.4]octan-6-yl)-5,6-dihydro-3-quinolinecarbonitrile], the IC50 was 92 nM against KRAS G12C; 1080 nM in assay [1] (Homo sapiens, MIA PaCa-2, 72 h); 3370 nM in assay [2] (Homo sapiens, A549, 72 h).

Turning to `C=CC(=O)N1CC2(CCN(c3nc4c(c(-c5ccccc5C)c3C#N)CCC(c3scnc3C)=C4)C2)C1` (single isomer, unassigned) [Example 23-24, (P)-4-(2-methylphenyl)-7-(4-methyl-1,3-thiazol-5-yl)-2-(2-(2-propenoyl)-2,6-diazaspiro[3.4]octan-6-yl)-5,6-dihydro-3-quinolinecarbonitrile], the IC50 against KRAS G12C was 71 nM; in assay [1] (72 h) it was 705 nM; in assay [2] (72 h), greater than 5000 nM.

Take `C=CC(=O)N1CC2(CCN(c3nc4c(c(-c5ncccc5C)c3C#N)CCC(c3scnc3C)=C4)C2)C1` (single isomer, unassigned) [Example 23-25, (P)-4-(3-methyl-2-pyridinyl)-7-(4-methyl-1,3-thiazol-5-yl)-2-(2-(2-propenoyl)-2,6-diazaspiro[3.4]octan-6-yl)-5,6-dihydro-3-quinolinecarbonitrile]: the IC50 is 196 nM against KRAS G12C, 480 nM in assay [1] (72 h) and greater than 5000 nM in assay [2] (72 h).

Consider `C=CC(=O)N1CC2(CCN(c3nc4c(c(-c5ncccc5C)c3C#N)CCC(c3scnc3C)=C4)C2)C1` (single isomer, unassigned) [Example 23-26, (M)-4-(3-methyl-2-pyridinyl)-7-(4-methyl-1,3-thiazol-5-yl)-2-(2-(2-propenoyl)-2,6-diazaspiro[3.4]octan-6-yl)-5,6-dihydro-3-quinolinecarbonitrile], for which the IC50 on KRAS G12C amounted to 551 nM; in assay [1] (72 h), 1690 nM; in assay [2] (72 h), 13000 nM.

Consider `C=CC(=O)N1CC2(CCN(c3nc4c(c(-c5ccccc5Cl)c3C#N)CCC(c3scnc3C)=C4)C2)C1` (single isomer, unassigned) [Example 23-41, (M)-4-(2-chlorophenyl)-7-(4-methyl-1,3-thiazol-5-yl)-2-(2-(2-propenoyl)-2,6-diazaspiro[3.4]octan-6-yl)-5,6-dihydro-3-quinolinecarbonitrile], for which the IC50 on KRAS G12C was 325 nM; in assay [1] (72 h) it was 2390 nM; in assay [2] (Homo sapiens, A549, 72 h), 5770 nM.

In the case of `C=CC(=O)N1CC2(CCN(c3nc4c(c(-c5ccccc5Cl)c3C#N)CCC(c3scnc3C)=C4)C2)C1` (single isomer, unassigned) [Example 23-42, (P)-4-(2-chlorophenyl)-7-(4-methyl-1,3-thiazol-5-yl)-2-(2-(2-propenoyl)-2,6-diazaspiro[3.4]octan-6-yl)-5,6-dihydro-3-quinolinecarbonitrile], the IC50 at KRAS G12C was 66 nM; in assay [1] (72 h), 561 nM; in assay [2] (72 h), greater than 5000 nM.
